Assay results published in patent US20220235005A1, “FUNGICIDAL N-(PYRID-3-YL)CARBOXAMIDES” (BASF SE, priority 2019, published 2022).

Cc1cc(NC(=O)/C(=N/OCC(C)C)c2ccccc2)cnc1C [Ex-8, (2E)-N-(5,6-dimethyl-3-pyridyl)-2-isobutoxyimino-2-phenyl-acetamide]
melting point: 169 °C
